# From US20230181499A1, “Hydroxyureamethyl-Acylfulvene for Treating Brain Cancer or CNS Cancer” (Lantern Pharma Inc., priority 2020, published 2023)
# Key:
# GBM neurospheres (M1123) = assay: Mice implanted with GBM neurospheres (M1123), subcutaneous tumor model; assay type: in vivo
# blood-brain barrier = assay: Neuromics in vitro 3D blood-brain barrier model (brain endothelial cells, pericytes, astrocytes); assay type: in vitro ADME, human; details: for blood-brain barrier penetration (in words): in vitro model system
# Source text: (§1) To evaluate the in vivo therapeutic activity of Hydroxyureamethyl-acylfulvene in mice bearing glioblastoma U87-SC cells (without any drug treatment in vitro) were inoculated subcutaneously.
# (§2) By way of background, the physically, metabolically and immunologically privileged status of the brain presents diagnostic and therapeutic limitations along with treatment-related neurotoxicity issues. A critical property of any drug for GBM would be its ability to penetrate the blood-brain barrier (BBB). […] In the highly representative Neuromics in vitro 3D model that closely recapitulates the human blood-brain barrier, transport properties of the blood-brain barrier are reflected due to the formation of tight junctions, higher expression of specific carriers, or great cell viability. This 3D in vitro model of the blood-brain barrier created by co-culturing brain endothelial cells with pericytes and astrocytes layered in an insert, improves endothelial cell polarization and enhances the formation of tight junctions, provides better endothelial cell-to-cell contact that is important for barrier development, and prevents the dilution of secreted neurotrophic factors. These conditions collectively lead to the development of an in vitro model that can truly mimic the blood-brain barrier. This assay leverages the novel 3D blood-brain barrier model that allows studying both compound transport across the barrier as well as the effect of compounds on the structure and function of the blood-brain barrier. Along with LP-184 and TMZ, the current standard of care chemotherapeutic for GBM, we also compared the behavior of known positive and negative control agents Antipyrine and Cyclosporin A respectively as benchmarks. […] Apparent blood brain barrier permeability measured for TMZ was 1.72*10-4 cm/s at 30 minutes and for LP-184 was 1.53*10-4 cm/s at 30 minutes, as illustrated in the following graph.
# [1] = tested on: glioblastoma U87-SC cells; assay: U87 subcutaneous xenograft tumor model of GBM; assay type: in vivo, mice; details: 4 every other day intravenous doses at 4 mg/kg
# Source text: as §1
# [2] = Neuromics in vitro 3D blood-brain barrier model (brain endothelial cells, pericytes, astrocytes); assay type: in vitro ADME, human; details: human
# Source text: as §1, §2
Papp at 30 min [2],Structure (SMILES),tumor response (GBM neurospheres (M1123); 4 every other day intravenous doses at 4 mg/kg),"mice with no measurable tumor after 12 days of the last dose (GBM neurospheres (M1123); 4 every other day intravenous doses at 4 mg/kg, four mice)",tumor volume relative to vehicle-treated control mice (physical observation) (GBM neurospheres (M1123); FIG. 7),blood-brain barrier integrity (blood-brain barrier; FIG. 3),"impact on cell viability (blood-brain barrier; blood-brain barrier model, FIG. 3/4)",blood-brain barrier penetration (in words) (blood-brain barrier),blood-brain barrier penetration (in words) (blood-brain barrier; listed as Hydroxyureamethyl-acylfulvene),tumor response [1],mice with no measurable tumors 12 days post the last dosing ([1]; 5 mice treated)
,"CC1=C(CN(O)C(N)=O)C2=C(C)C3(CC3)[C@@](C)(O)C(=O)C2=C1 [LP-184, hydroxyureamethyl-acylfulvene]",complete tumor regression,Three of four mice,clear tumor growth inhibition,not compromised,insignificant impact on cell viability,as effective as TMZ in penetrating the blood-brain barrier,shown to cross the blood-brain barrier,complete tumor regression,all 5 mice
172 ×10⁻⁶ cm/s,"Cn1nnc2c(C(N)=O)ncn2c1=O [TMZ, temozolomide, reference compound]",,,,,,,,,
